Holding throughout (experiment): relative viability (nuclei count vs DMSO), 5 days (fraction); higher = more cells survive
Compound in the assay “OSI-027 + Dasatinib”: COc1cccc2cc(-c3nc([C@H]4CC[C@H](C(=O)O)CC4)n4ncnc(N)c34)[nH]c12 [OSI-027] + Cc1nc(Nc2ncc(C(=O)Nc3c(C)cccc3Cl)s2)cc(N2CCN(CCO)CC2)n1 [Dasatinib] (partner 0.075 µM)
The method in brief:
(§1)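 Medians of duplicate plates are given as relative viability. That measure is the nuclei count in treated wells divided by the count in vehicle wells. Counts were taken on 4× images of lung cancer cell lines in 1536-well plates, 5 days after pin-tool dosing the day after seeding with one drug alone or a fixed anchor-drug dose plus five library-drug doses (not always all listed) in √10 steps.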

Compound in the assay “Alpelisib + Lapatinib”: Cc1nc(NC(=O)N2CCC[C@H]2C(N)=O)sc1-c1ccnc(C(C)(C)C(F)(F)F)c1 [Alpelisib] + CS(=O)(=O)CCNCc1ccc(-c2ccc3ncnc(Nc4ccc(OCc5cccc(F)c5)c(Cl)c4)c3c2)o1 [Lapatinib] (partner 2 µM)
The method in brief: as §1

Compound in the assay “Alpelisib + Crizotinib”: Cc1nc(NC(=O)N2CCC[C@H]2C(N)=O)sc1-c1ccnc(C(C)(C)C(F)(F)F)c1 [Alpelisib] + C[C@@H](Oc1cc(-c2cnn(C3CCNCC3)c2)cnc1N)c1c(Cl)ccc(F)c1Cl [Crizotinib] (partner 1 µM)
In outline: as §1

Compound in the assay “Alpelisib + Olaparib”: Cc1nc(NC(=O)N2CCC[C@H]2C(N)=O)sc1-c1ccnc(C(C)(C)C(F)(F)F)c1 [Alpelisib] + O=C(c1cc(Cc2n[nH]c(=O)c3ccccc23)ccc1F)N1CCN(C(=O)C2CC2)CC1 [Olaparib] (partner 8 µM)
In outline:
as §1

As for NCI-H1437, the relative viability in the assay with OSI-027 + Dasatinib (first compound 0.01 µM) turned out to be 0.421; with OSI-027 + Dasatinib (first compound 0.03162 µM), 0.441; in the assay with OSI-027 + Dasatinib (first compound 0.1 µM), 0.32; with OSI-027 + Dasatinib (first compound 0.3162 µM) it was 0.373; in the assay with OSI-027 + Dasatinib (first compound 1 µM), 0.192; with Alpelisib + Lapatinib (first compound 0.04 µM) it was 0.756. Also, the relative viability with Alpelisib + Lapatinib (first compound 0.1265 µM) is 0.91; with Alpelisib + Lapatinib (first compound 0.4 µM), 0.772; with Alpelisib + Lapatinib (first compound 1.265 µM) it was 0.616; with Alpelisib + Lapatinib (first compound 4 µM), 0.602; with Alpelisib + Crizotinib (first compound 0.04 µM), 0.904; with Alpelisib + Crizotinib (first compound 0.1265 µM) it was 0.919. In addition, the relative viability with Alpelisib + Crizotinib (first compound 0.4 µM) worked out at 1; in the assay with Alpelisib + Crizotinib (first compound 1.265 µM), 0.906; with Alpelisib + Crizotinib (first compound 4 µM), 0.942; with Alpelisib + Olaparib (first compound 0.04 µM), 0.64; with Alpelisib + Olaparib (first compound 0.1265 µM), 0.684; with Alpelisib + Olaparib (first compound 0.4 µM) it was 0.679. Moreover, the values for the relative viability with Alpelisib + Olaparib (first compound 1.265 µM) and with Alpelisib + Olaparib (first compound 4 µM) were 0.627 and 0.644, respectively.
For NCI-H1650, the relative viability with OSI-027 + Dasatinib (first compound 0.01 µM) turned out to be 0.313; in the assay with OSI-027 + Dasatinib (first compound 0.03162 µM), 0.347; with OSI-027 + Dasatinib (first compound 0.1 µM), 0.255; in the assay with OSI-027 + Dasatinib (first compound 0.3162 µM), 0.279; with OSI-027 + Dasatinib (first compound 1 µM), 0.229; with Alpelisib + Lapatinib (first compound 0.04 µM) it was 0.718. Moreover, the relative viability in the assay with Alpelisib + Lapatinib (first compound 0.1265 µM) was found to be 0.738; in the assay with Alpelisib + Lapatinib (first compound 0.4 µM), 0.806; with Alpelisib + Lapatinib (first compound 1.265 µM), 0.62; with Alpelisib + Lapatinib (first compound 4 µM), 0.794; with Alpelisib + Crizotinib (first compound 0.04 µM), 1.01; with Alpelisib + Crizotinib (first compound 0.1265 µM) it was 0.941. In addition, the relative viability with Alpelisib + Crizotinib (first compound 0.4 µM) amounted to 1.02; in the assay with Alpelisib + Crizotinib (first compound 1.265 µM), 0.847; with Alpelisib + Crizotinib (first compound 4 µM), 0.956; with Alpelisib + Olaparib (first compound 0.04 µM), 0.878; with Alpelisib + Olaparib (first compound 0.1265 µM), 0.786; in the assay with Alpelisib + Olaparib (first compound 0.4 µM) it was 0.932. Moreover, the relative viability came out at 0.523 in the assay with Alpelisib + Olaparib (first compound 1.265 µM) and 0.622 with Alpelisib + Olaparib (first compound 4 µM).
Regarding NCI-H1651, the relative viability with OSI-027 + Dasatinib (first compound 0.01 µM) stood at 0.405; with OSI-027 + Dasatinib (first compound 0.03162 µM), 0.325; with OSI-027 + Dasatinib (first compound 0.1 µM) it was 0.352; with OSI-027 + Dasatinib (first compound 0.3162 µM) it was 0.358; with OSI-027 + Dasatinib (first compound 1 µM), 0.213; with Alpelisib + Lapatinib (first compound 0.04 µM) it was 0.773. Besides, the relative viability in the assay with Alpelisib + Lapatinib (first compound 0.1265 µM) is 0.803; in the assay with Alpelisib + Lapatinib (first compound 0.4 µM), 0.943; in the assay with Alpelisib + Lapatinib (first compound 1.265 µM) it was 0.646; with Alpelisib + Lapatinib (first compound 4 µM), 0.618; in the assay with Alpelisib + Crizotinib (first compound 0.04 µM), 0.845; in the assay with Alpelisib + Crizotinib (first compound 0.1265 µM) it was 0.906. The relative viability with Alpelisib + Crizotinib (first compound 0.4 µM) stood at 0.889; in the assay with Alpelisib + Crizotinib (first compound 1.265 µM) it was 0.784; in the assay with Alpelisib + Crizotinib (first compound 4 µM) it was 0.694; with Alpelisib + Olaparib (first compound 0.04 µM) it was 0.182; with Alpelisib + Olaparib (first compound 0.1265 µM), 0.188; in the assay with Alpelisib + Olaparib (first compound 0.4 µM) it was 0.203. Further, the relative viability is 0.198 with Alpelisib + Olaparib (first compound 1.265 µM) and 0.17 in the assay with Alpelisib + Olaparib (first compound 4 µM).
Take NCI-H1666: the relative viability with OSI-027 + Dasatinib (first compound 0.01 µM) turned out to be 0.825; with OSI-027 + Dasatinib (first compound 0.03162 µM), 0.778; in the assay with OSI-027 + Dasatinib (first compound 0.1 µM), 0.732; in the assay with OSI-027 + Dasatinib (first compound 0.3162 µM) it was 0.733; with OSI-027 + Dasatinib (first compound 1 µM) it was 0.463; with Alpelisib + Lapatinib (first compound 0.04 µM), 0.668. For the same cell line, the relative viability with Alpelisib + Lapatinib (first compound 0.1265 µM) worked out at 0.381; with Alpelisib + Lapatinib (first compound 0.4 µM), 0.682; with Alpelisib + Lapatinib (first compound 1.265 µM) it was 0.475; with Alpelisib + Lapatinib (first compound 4 µM), 0.356; with Alpelisib + Crizotinib (first compound 0.04 µM), 0.914; in the assay with Alpelisib + Crizotinib (first compound 0.1265 µM), 0.87. For the same cell line, the relative viability with Alpelisib + Crizotinib (first compound 0.4 µM) turned out to be 0.932; in the assay with Alpelisib + Crizotinib (first compound 1.265 µM), 0.765; with Alpelisib + Crizotinib (first compound 4 µM) it was 0.747; with Alpelisib + Olaparib (first compound 0.04 µM), 0.771; with Alpelisib + Olaparib (first compound 0.1265 µM), 0.774; in the assay with Alpelisib + Olaparib (first compound 0.4 µM) it was 0.816. Moreover, the relative viability in the assay with Alpelisib + Olaparib (first compound 1.265 µM) is 0.704; in the assay with Alpelisib + Olaparib (first compound 4 µM), 0.688.

For the origin of these results see the supplement of paper PMC10307832.
